Experimental data from US6608082B1, “Treatment of erectile dysfunction using isoquinoline compound melanocortin receptor ligands” (Lion Bioscience AG, priority 1998, dated 2003).

Target: T1, MCR-1 (Homo sapiens, UniProt Q01726)
T1 construct: expressed in transfected cells; host or cells: HEK 293
Assay: Melanocortin receptor binding assay, competition with 125I-HP 467, HEK 293 cells expressing hMCR-1
Settings: 10 μM isoquinoline compound; for % Disp. of 125I-HP 467 (first of duplicate): HEK 293 cells expressing MCR-1, duplicate 1; for % Disp. of 125I-HP 467 (second of duplicate): HEK 293 cells expressing MCR-1, duplicate 2
Summary of the method: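 Test compounds compete on intact HEK 293 cells carrying hMCR-1 (2×10^4 per tube) or hMCR-4 (4×10^3 per tube), suspended in PBS, 10% calf serum, 1 mM CaCl2.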

T1 sequence (Q01726 whole entry): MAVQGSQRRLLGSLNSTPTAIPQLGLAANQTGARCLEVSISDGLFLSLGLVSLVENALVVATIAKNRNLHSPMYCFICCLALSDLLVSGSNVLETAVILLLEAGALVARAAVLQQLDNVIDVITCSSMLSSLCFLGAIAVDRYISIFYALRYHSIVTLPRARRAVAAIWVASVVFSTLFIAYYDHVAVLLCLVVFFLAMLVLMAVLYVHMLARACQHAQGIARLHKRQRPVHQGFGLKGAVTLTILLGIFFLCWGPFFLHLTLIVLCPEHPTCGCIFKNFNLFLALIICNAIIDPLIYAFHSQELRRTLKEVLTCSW

Structure (SMILES)	% Disp. of 125I-HP 467 (first of duplicate) [%]	% Disp. of 125I-HP 467 (second of duplicate) [%]
CCn1c2ccccc2c2cc(C3C(CNC4CCCCC4)c4ccccc4CN3CC(CN)NC)ccc21 (stereo not shown) [TRG 2405-173]	67	59.3
CNC(CN)CN1Cc2ccccc2C(CNC2CCCCC2)C1c1ccc[nH]1 (stereo not shown) [TRG 2405-175]	68.5	68.8
CNC(CN)CN1Cc2ccccc2C(CNC2CCCCC2)C1c1ccc(S(C)(=O)=O)cc1 (stereo not shown) [TRG 2405-177]	39	30.7
CNC(CN)CN1Cc2ccccc2C(CNC2CCCCC2)C1c1ccc(OC)c(S(=O)(=O)O)c1 (stereo not shown) [TRG 2405-178]	25	22.1
CNC(CN)CN1Cc2ccccc2C(CNC2CCCCC2)C1c1ccc(Br)o1 (stereo not shown) [TRG 2405-179]	61.1	56.8
CNC(CN)CN1Cc2ccccc2C(CNC2CCCCC2)C1c1nccs1 (stereo not shown) [TRG 2405-180]	72	64.6
CNC(CN)CCCCN1Cc2ccccc2C(CNC2CCCCC2)C1c1ccccc1 (stereo not shown) [TRG 2405-181]	57.3	64.4
CNC(CN)CCCCN1Cc2ccccc2C(CNC2CCCCC2)C1c1cccn1C (stereo not shown) [TRG 2405-184]	55.8	46
CN[C@H](CN)CCCCN1Cc2ccccc2C(CNC2CCCCC2)C1c1cccc2ccccc12 (stereo partly shown) [TRG 2405-185]	68.1	60.4
CNC(CN)CCCCN1Cc2ccccc2C(CNC2CCCCC2)C1c1ccc(F)c(F)c1F (stereo not shown) [TRG 2405-186]	62.7	52.7
CNC(CN)CCCCN1Cc2ccccc2C(CNC2CCCCC2)C1c1cccc2c1OCO2 (stereo not shown) [TRG 2405-188]	66.9	60.1
CNC(CN)CCCCN1Cc2ccccc2C(CNC2CCCCC2)C1c1cccc(F)c1F (stereo not shown) [TRG 2405-189]	45	54.8
CNC(CN)CCCCN1Cc2ccccc2C(CNC2CCCCC2)C1c1c(F)cccc1F (stereo not shown) [TRG 2405-191]	41.2	47.3
CNC(CN)CCCCN1Cc2ccccc2C(CNC2CCCCC2)C1c1ccccc1Br (stereo not shown) [TRG 2405-192]	73.8	50.9
CNC(CN)CCCCN1Cc2ccccc2C(CNC2CCCCC2)C1c1c(F)cccc1Cl (stereo not shown) [TRG 2405-194]	50.7	51.4
CNC(CN)CCCCN1Cc2ccccc2C(CNC2CCCCC2)C1c1ccccc1CN (stereo not shown) [TRG 2405-195]	44.7	35.7
CNC(CN)CCCCN1Cc2ccccc2C(CNC2CCCCC2)C1c1ccccc1F (stereo not shown) [TRG 2405-196]	69.1	64.6
CNC(CN)CCCCN1Cc2ccccc2C(CNC2CCCCC2)C1c1ccco1 (stereo not shown) [TRG 2405-197]	41.9	41.3
CNC(CN)CCCCN1Cc2ccccc2C(CNC2CCCCC2)C1c1ncc[nH]1 (stereo not shown) [TRG 2405-198]	65.4	26.4
CNC(CN)CCCCN1Cc2ccccc2C(CNC2CCCCC2)C1c1ccccc1OC (stereo not shown) [TRG 2405-199]	71.5	71.4
CNC(CN)CCCCN1Cc2ccccc2C(CNC2CCCCC2)C1c1ccc2ccccc2c1 (stereo not shown) [TRG 2405-200]	83.6	81
CNC(CN)CCCCN1Cc2ccccc2C(CNC2CCCCC2)C1c1ccccn1 (stereo not shown) [TRG 2405-201]	61.1	43.4
CNC(CN)CCCCN1Cc2ccccc2C(CNC2CCCCC2)C1c1ccc2ccccc2n1 (stereo not shown) [TRG 2405-202]	63	53.2
CNC(CN)CCCCN1Cc2ccccc2C(CNC2CCCCC2)C1c1cccs1 (stereo not shown) [TRG 2405-203]	58.1	49
CNC(CN)CCCCN1Cc2ccccc2C(CNC2CCCCC2)C1c1ccc(Cl)c(Cl)c1 (stereo not shown) [TRG 2405-206]	75	69
CNC(CN)CCCCN1Cc2ccccc2C(CNC2CCCCC2)C1c1cc(C(F)(F)F)cc(C(F)(F)F)c1 (stereo not shown) [TRG 2405-208]	79.5	67.5
CNC(CN)CCCCN1Cc2ccccc2C(CNC2CCCCC2)C1c1cc(Cl)cc(Cl)c1 (stereo not shown) [TRG 2405-210]	76.5	69.6

Structure (SMILES)	% Disp. of 125I-HP 467 (first of duplicate) [%]	% Disp. of 125I-HP 467 (second of duplicate) [%]
CNC(CN)CCCCN1Cc2ccccc2C(CNC2CCCCC2)C1c1cc(OC)cc(OC)c1 (stereo not shown) [TRG 2405-211]	69.9	69
CNC(CN)CCCCN1Cc2ccccc2C(CNC2CCCCC2)C1c1cc(C)c(O)c(C)c1 (stereo not shown) [TRG 2405-212]	54.8	45.8
CNC(CN)CCCCN1Cc2ccccc2C(CNC2CCCCC2)C1c1cccc(Oc2ccc(OC)cc2)c1 (stereo not shown) [TRG 2405-214]	87.5	84.9
CNC(CN)CCCCN1Cc2ccccc2C(CNC2CCCCC2)C1c1cccc(C(F)(F)F)c1 (stereo not shown) [TRG 2405-215]	75.9	70.8
CNC(CN)CCCCN1Cc2ccccc2C(CNC2CCCCC2)C1c1ccc(F)c(Br)c1 (stereo not shown) [TRG 2405-216]	78.9	67.9
CNC(CN)CCCCN1Cc2ccccc2C(CNC2CCCCC2)C1c1cccc(Br)c1 (stereo not shown) [TRG 2405-217]	74.5	68.8
CNC(CN)CCCCN1Cc2ccccc2C(CNC2CCCCC2)C1c1cccc(CN)c1 (stereo not shown) [TRG 2405-219]	43.5	42.9
CNC(CN)CCCCN1Cc2ccccc2C(CNC2CCCCC2)C1c1ccc(OC)c(F)c1 (stereo not shown) [TRG 2405-220]	67.3	60.6
CNC(CN)CCCCN1Cc2ccccc2C(CNC2CCCCC2)C1c1cccc(F)c1 (stereo not shown) [TRG 2405-221]	65.2	62.7
CNC(CN)CCCCN1Cc2ccccc2C(CNC2CCCCC2)C1c1ccoc1 (stereo not shown) [TRG 2405-222]	34.3	39.3
CNC(CN)CCCCN1Cc2ccccc2C(CNC2CCCCC2)C1c1cccc(O)c1 (stereo not shown) [TRG 2405-223]	33.6	21.2
CNC(CN)CCCCN1Cc2ccccc2C(CNC2CCCCC2)C1c1cccc(OC)c1 (stereo not shown) [TRG 2405-225]	69.8	69.4
CNC(CN)CCCCN1Cc2ccccc2C(CNC2CCCCC2)C1c1cccc(C)c1 (stereo not shown) [TRG 2405-227]	78.2	74.6
CNC(CN)CCCCN1Cc2ccccc2C(CNC2CCCCC2)C1c1cccc([N+](=O)[O-])c1 (stereo not shown) [TRG 2405-229]	58.6	48.8
CNC(CN)CCCCN1Cc2ccccc2C(CNC2CCCCC2)C1c1cccc(Oc2ccccc2)c1 (stereo not shown) [TRG 2405-230]	89.2	84.2
CNC(CN)CCCCN1Cc2ccccc2C(CNC2CCCCC2)C1c1cccnc1 (stereo not shown) [TRG 2405-231]	25	18.9
CNC(CN)CCCCN1Cc2ccccc2C(CNC2CCCCC2)C1c1cnc2ccccc2c1 (stereo not shown) [TRG 2405-232]	36.1	34.2
CNC(CN)CCCCN1Cc2ccccc2C(CNC2CCCCC2)C1c1ccc(OCCCN(C)C)cc1 (stereo not shown) [TRG 2405-234]	52.9	37.7
CNC(CN)CCCCN1Cc2ccccc2C(CNC2CCCCC2)C1c1ccc(SC)cc1 (stereo not shown) [TRG 2405-237]	62.2	47.8
CNC(CN)CCCCN1Cc2ccccc2C(CNC2CCCCC2)C1c1ccc(OC)cc1 (stereo not shown) [TRG 2405-240]	69.6	66.5
CNC(CN)CCCCN1Cc2ccccc2C(CNC2CCCCC2)C1c1ccc(CN)cc1 (stereo not shown) [TRG 2405-244]	29.7	22.5
CNC(CN)CCCCN1Cc2ccccc2C(CNC2CCCCC2)C1c1ccc(F)cc1 (stereo not shown) [TRG 2405-245]	56.6	56.8
CNC(CN)CCCCN1Cc2ccccc2C(CNC2CCCCC2)C1c1ccc(C(C)C)cc1 (stereo not shown) [TRG 2405-247]	83	85.3
CNC(CN)CCCCN1Cc2ccccc2C(CNC2CCCCC2)C1c1ccc(C)cc1 (stereo not shown) [TRG 2405-249]	82.3	83
CNC(CN)CCCCN1Cc2ccccc2C(CNC2CCCCC2)C1c1ccc([N+](=O)[O-])cc1 (stereo not shown) [TRG 2405-251]	49.4	46.9
CNC(CN)CCCCN1Cc2ccccc2C(CNC2CCCCC2)C1c1ccncc1 (stereo not shown) [TRG 2405-254]	24.9	29.1
